Results on 14 compounds are retold here after patent US12281122B1, “PI3K inhibitors” (Cogent Biosciences, Inc., priority 2023, dated 2025).

In test [1] the test system is SKBR3 (PI3Kα-Wild Type) cell line. Description: HTRF phospho-AKT(S473) cell assay in SKBR3 cells. Particulars: Homo sapiens, SK-BR-3; HTRF phospho-AKT(S473), SKBR3 (PI3Kα-Wild Type) cells, 2 hours compound incubation, PDGF-BB stimulated. In kind it is cell-based, human. The gist of the method:
(§1)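 HTRF read-out of phospho-AKT(S473) in lysates gave IC50 values after 2 h compound exposure at 37° C. Dose series was 12 points at 1:3, topping at 5 μM for T47D and 10 μM for SKBR3. Only SKBR3 received 70 ng/ml PDGF-BB during the last 15 minutes.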
For orientation: In TR-FRET formats the signal depends on donor and acceptor labels being close together.

The subject of test [2] is T47D (PI3Kα-H1047R) cell line. Description: HTRF phospho-AKT(S473) cell assay in T47D cells. The class given is cell-based, human. The conditions noted are these: Homo sapiens; HTRF phospho-AKT(S473), T47D (PI3Kα-H1047R) cells, 2 hours compound incubation. Put shortly:
as §1

Molecules are shown by their SMILES.

As a reminder, the IC50 is the concentration needed to halve the response being measured. A higher IC50 goes with lower potency. With `COc1ncc([C@H]2[C@@H]3CN(c4nc5c([C@@H](C)Nc6ccc(Cl)nc6C(=O)NS(C)(=O)=O)cc(C)cc5c(=O)n4C)C[C@@H]32)cn1` [Compound 483, 6-chloro-3-(((R)-1-(2-((1R,5S,6S)-6-(2-methoxypyrimidin-5-yl)-3-azabicyclo[3.1.0]hexan-3-yl)-3,6-dimethyl-4-oxo-3,4-dihydroquinazolin-8-yl)ethyl)amino)-N-(methylsulfonyl) picolinamide], the IC50 in test [1] is 1000 to 5000 nM; in test [2], < 250 nM.
In the same order, the values of `Cc1cc([C@@H](C)Nc2ccc(Cl)nc2C(=O)NS(C)(=O)=O)c2nc(N3C[C@@H]4[C@H](C3)[C@H]4c3cnc(C(F)(F)F)nc3)n(C)c(=O)c2c1` [Compound 484, 6-chloro-3-(((R)-1-(3,6-dimethyl-4-oxo-2-((1R,5S,6S)-6-(2-(trifluoromethyl)pyrimidin-5-yl)-3-azabicyclo[3.1.0]hexan-3-yl)-3,4-dihydroquinazolin-8-yl)ethyl)amino)-N-(methylsulfonyl) picolinamide] are 1000 to 5000 nM and 250 to 500 nM.
On the same counts, the results for `Cc1cc([C@@H](C)Nc2ccc(Cl)nc2C(=O)NS(C)(=O)=O)c2nc(N3C[C@@H]4[C@H](C3)[C@H]4c3cnc(C4CC4)nc3)n(C)c(=O)c2c1` [Compound 485, 6-chloro-3-(((R)-1-(2-((1R,5S,6S)-6-(2-cyclopropylpyrimidin-5-yl)-3-azabicyclo[3.1.0]hexan-3-yl)-3,6-dimethyl-4-oxo-3,4-dihydroquinazolin-8-yl)ethyl)amino)-N-(methylsulfonyl) picolinamide] are 1000 to 5000 nM and 250 to 500 nM.
In the same order, the values of `Cc1cc([C@@H](C)Nc2ccc(Cl)nc2C(=O)NS(C)(=O)=O)c2nc(N3CCC(c4ncc(F)cn4)CC3)n(C)c(=O)c2c1` [Compound 486, (R)-6-chloro-3-((1-(2-(4-(5-fluoropyrimidin-2-yl)piperidin-1-yl)-3,6-dimethyl-4-oxo-3,4-dihydroquinazolin-8-yl)ethyl)amino)-N-(methylsulfonyl) picolinamide] are 1000 to 5000 nM and < 250 nM.
As to `COc1cnc(C2CCN(c3nc4c([C@@H](C)Nc5ccc(Cl)nc5C(=O)NS(C)(=O)=O)cc(C)cc4c(=O)n3C)CC2)nc1` [Compound 487, (R)-6-chloro-3-((1-(2-(4-(5-methoxypyrimidin-2-yl)piperidin-1-yl)-3,6-dimethyl-4-oxo-3,4-dihydroquinazolin-8-yl)ethyl)amino)-N-(methylsulfonyl) picolinamide], the IC50 in test [1] is 1000 to 5000 nM; in test [2], 250 to 500 nM.
Turning to `Cc1cc([C@@H](C)Nc2ccc(Cl)nc2C(=O)NS(C)(=O)=O)c2nc(N3CCC(c4ccnn4CC(F)(F)F)CC3)n(C)c(=O)c2c1` [Compound 488, (R)-6-chloro-3-((1-(3,6-dimethyl-4-oxo-2-(4-(1-(2,2,2-trifloroethyl)-1H-pyrazol-5-yl)piperidin-1-yl)-3,4-dihydroquinazolin-8-yl)ethyl)amino)-N-(methylsulfonyl) picolinamide], the IC50 in test [1] was 1000 to 5000 nM; in test [2], < 250 nM.
In the same order, the values of `Cc1cc([C@@H](C)Nc2ccc(Cl)nc2C(=O)NS(C)(=O)=O)c2nc(N3CCC(c4cnn(C)n4)CC3)n(C)c(=O)c2c1` [Compound 489, (R)-6-chloro-3-((1-(3,6-dimethyl-2-(4-(2-methyl-2H-1,2,3-triazol-4-yl)piperidin-1-yl)-4-oxo-3,4-dihydroquinazolin-8-yl)ethyl)amino)-N-(methylsulfonyl) picolinamide] are 1000 to 5000 nM and < 250 nM.
Consider `Cc1cc([C@@H](C)Nc2ccc(Cl)nc2C(=O)NS(C)(=O)=O)c2nc(N3CCC(n4nc(C)cc4F)CC3)n(C)c(=O)c2c1` [Compound 490, (R)-6-chloro-3-((1-(2-(4-(5-fluoro-3-methyl-1H-pyrazol-1-yl)piperidin-1-yl)-3,6-dimethyl-4-oxo-3,4-dihydroquinazolin-8-yl)ethyl)amino)-N-(methylsulfonyl) picolinamide], for which the IC50 in test [1] is ≥ 5000 nM; in test [2], 250 to 500 nM.
Consider `Cc1cc([C@@H](C)Nc2ccc(Cl)nc2C(=O)NS(C)(=O)=O)c2nc(N3C[C@@H]4[C@H](C3)[C@H]4n3cc(C)cn3)n(C)c(=O)c2c1` [Compound 491, 6-chloro-3-(((R)-1-(3,6-dimethyl-2-((1R,5S,6S)-6-(4-methyl-1H-pyrazol-1-yl)-3-azabicyclo[3.1.0]hexan-3-yl)-4-oxo-3,4-dihydroquinazolin-8-yl)ethyl)amino)-N-(methylsulfonyl) picolinamide], for which the IC50 in test [1] fell in the range of 1000 to 5000 nM; in test [2], 250 to 500 nM.
`Cc1cc([C@@H](C)Nc2ccc(Cl)nc2C(=O)NS(C)(=O)=O)c2nc(N3CCC(n4cc(F)c(C)n4)CC3)n(C)c(=O)c2c1` [Compound 492, (R)-6-chloro-3-((1-(2-(4-(4-fluoro-3-methyl-1H-pyrazol-1-yl)piperidin-1-yl)-3,6-dimethyl-4-oxo-3,4-dihydroquinazolin-8-yl)ethyl)amino)-N-(methylsulfonyl) picolinamide]: the IC50 was in the range of 1000 to 5000 nM in test [1] and 250 to 500 nM in test [2].
`[2H]C([2H])([2H])n1ccc([C@H]2[C@@H]3CN(c4nc5c([C@@H](C)Nc6ccc(Cl)nc6C(=O)NS(C)(=O)=O)cc(C)cc5c(=O)n4C)C[C@@H]32)n1` [Compound 493, 6-chloro-3-(((R)-1-(3,6-dimethyl-2-((1R,5S,6R)-6-(1-(methyl-d3)-1H-pyrazol-3-yl)-3-azabicyclo[3.1.0]hexan-3-yl)-4-oxo-3,4-dihydroquinazolin-8-yl)ethyl)amino)-N-(methylsulfonyl) picolinamide]: the IC50 in test [1] is 1000 to 5000 nM; in test [2], < 250 nM.
In the same order, the values of `[2H]C([2H])([2H])n1nccc1[C@H]1[C@@H]2CN(c3nc4c([C@@H](C)Nc5ccc(Cl)nc5C(=O)NS(C)(=O)=O)cc(C)cc4c(=O)n3C)C[C@@H]21` [Compound 494, 6-chloro-3-(((R)-1-(3,6-dimethyl-2-((1R,5S,6R)-6-(1-(methyl-d3)-1H-pyrazol-5-yl)-3-azabicyclo[3.1.0]hexan-3-yl)-4-oxo-3,4-dihydroquinazolin-8-yl)ethyl)amino)-N-(methylsulfonyl) picolinamide] are 1000 to 5000 nM and < 250 nM.
Take `Cc1cc([C@@H](C)Nc2ccc(Cl)nc2C(=O)NS(C)(=O)=O)c2nc(N3C[C@@H]4[C@H](C3)[C@H]4c3cc(C)ncc3F)n(C)c(=O)c2c1` [Compound 495, 6-chloro-3-(((R)-1-(2-((1R,5S,6S)-6-(5-fluoro-2-methylpyridin-4-yl)-3-azabicyclo[3.1.0]hexan-3-yl)-3,6-dimethyl-4-oxo-3,4-dihydroquinazolin-8-yl)ethyl)amino)-N-(methylsulfonyl) picolinamide]: the values for the IC50 in test [1] and in test [2] were 1000 to 5000 nM and 250 to 500 nM, respectively.
In the same order, the values of `Cc1cc([C@@H](C)Nc2ccc(Cl)nc2C(=O)NS(C)(=O)=O)c2nc(N3C[C@@H]4[C@H](C3)[C@H]4c3nnn(C)n3)n(C)c(=O)c2c1` [Compound 496, 6-chloro-3-(((R)-1-(3,6-dimethyl-2-((1R,5S,6R)-6-(2-methyl-2H-tetrazol-5-yl)-3-azabicyclo[3.1.0]hexan-3-yl)-4-oxo-3,4-dihydroquinazolin-8-yl)ethyl)amino)-N-(methylsulfonyl) picolinamide] are 1000 to 5000 nM and < 250 nM.
